Assay results reported in patent US11813340B2, “PSMA targeted radiohalogenated urea-polyaminocarboxylates for cancer radiotherapy” (The Johns Hopkins University, priority 2018, dated 2023).
Like-named read-outs stand apart in the source and are kept apart here.

Experiments:
[1] = test system: PSMA + PC3-PIP and PSMA-PC3-flu flank xenografts; conditions: for Biodistribution, Blood / Biodistribution, Flu tumor / Biodistribution, Kidneys / Biodistribution, Lacrimal glands / Biodistribution, Pip (tumor) / Biodistribution, Salivary glands / Biodistribution, Spleen / Biodistribution, Stomach: without cold blocking agent
Protocol: Final compounds were purified by HPLC. […] Organs were harvested 1, 4, and 24 h post-injection (n=5 per time point).

[2] = test system: PSMA+PC3-PIP and PSMA-PC3-flu flank xenografts; assay: Biodistribution of [125I/211At]2 and 3 with and without co-injection of DCIBzL (Example 6); format: in vivo, athymic mice
Description: Final compounds were purified by HPLC.

O=C([O-])CN1CCN(CC(=O)[O-])CCN(CC(=O)NCCCCC(=O)N(CCCC[C@H](NC(=O)N[C@@H](CCC(=O)O)C(=O)O)C(=O)O)Cc2ccc([125I])cc2)CCN(CC(=O)[O-])CC1.[Lu+3] [[^125I]VK-02-90-Lu]
Biodistribution, Blood ([1]; 1 H): 1.2 ± 0.4 % injected dose/g | Biodistribution, Flu tumor ([1]; 1 H): 0.9 ± 0.3 % injected dose/g | Biodistribution, Kidneys ([1]; 1 H): 180 ± 36 % injected dose/g | Biodistribution, Lacrimal glands ([1]; 1 H): 4.1 ± 1.3 % injected dose/g | Biodistribution, Pip (tumor) ([1]; 1 H): 51 ± 8.5 % injected dose/g | Biodistribution, Salivary glands ([1]; 1 H): 1.0 ± 0.3 % injected dose/g | Biodistribution, Spleen ([1]; 1 H): 7.4 ± 2.6 % injected dose/g | Biodistribution, Stomach ([1]; 1 H): 0.7 ± 0.4 % injected dose/g | Biodistribution, Blood ([1]; 4 H): 0.06 ± 0.06 % injected dose/g | Biodistribution, Flu tumor ([1]; 4 H): 0.3 ± 0.5 % injected dose/g | Biodistribution, Kidneys ([1]; 4 H): 18.2 ± 4.9 % injected dose/g | Biodistribution, Lacrimal glands ([1]; 4 H): 0.3 ± 0.1 % injected dose/g | Biodistribution, Pip (tumor) ([1]; 4 H): 27.8 ± 17 % injected dose/g | Biodistribution, Salivary glands ([1]; 4 H): 0.1 ± 0.05 % injected dose/g | Biodistribution, Spleen ([1]; 4 H): 0.6 ± 0.2 % injected dose/g | Biodistribution, Stomach ([1]; 4 H): 0.1 ± 0.1 % injected dose/g | Biodistribution, Blood ([1]; 24 H): 0.1 ± 0.01 % injected dose/g | Biodistribution, Flu tumor ([1]; 24 H): 0.03 ± 0.01 % injected dose/g | Biodistribution, Kidneys ([1]; 24 H): 3.3 ± 1.1 % injected dose/g | Biodistribution, Lacrimal glands ([1]; 24 H): 0.06 ± 0.03 % injected dose/g | Biodistribution, Pip (tumor) ([1]; 24 H): 24.0 ± 6.2 % injected dose/g | Biodistribution, Salivary glands ([1]; 24 H): 0.03 ± 0.01 % injected dose/g | Biodistribution, Spleen ([1]; 24 H): 0.1 ± 0.06 % injected dose/g | Biodistribution, Stomach ([1]; 24 H): 0.04 ± 0.01 % injected dose/g | clearance from the spleen, salivary glands, lacrimal glands and kidneys ([1]; compared with [^125I]VK-02-90): faster clearance | retention of radioactivity, lacrimal glands (LG) ([2]; 1h, no co-injection): 4.1±1.3 % ID/g | retention of radioactivity, salivary glands (SG) ([2]; 1h, no co-injection): 1.0±0.3 % ID/g | retention of radioactivity, kidneys (K) ([2]; 4 h, no co-injection): 18.2±4.9 % ID/g | retention of radioactivity, kidneys (K) ([2]; 24 h, no co-injection): 3.3±1.1 % ID/g | Stomach uptake ([2]; @ 1 h): 1.8±0.2 % ID/g | retention, K ([2]; @1 h, co-injection of DCIBzL): 4.2±1.3 % ID/g | retention, LG ([2]; @1 h, co-injection of DCIBzL): 0.5±0.1 % ID/g | retention, SG ([2]; @1 h, co-injection of DCIBzL): 3.2±0.7 % ID/g | Stomach uptake ([2]; @ 4 h): 0.8±0.5 % ID/g | Stomach uptake ([2]; @ 24 h): 0.1±0.04 % ID/g
